Values of other authors, collected in EP0409903B1, “PROCESS FOR PREPARING POLYUNSATURATED FATTY ACIDS” (STAROIL LIMITED, priority 1988, dated 1989).

Conditions: ingestion of DHA in ester form and/or as the free acid; Hiroi at al., 1978

- DHA and EPA levels in plasmatic phospholipids: significantly increases
SMILES: CC/C=C\C/C=C\C/C=C\C/C=C\C/C=C\C/C=C\CCC(=O)O [DHA, docosahexaenoic acid]
